The subject of the assay is BDF1 mice, P388 leukemia ip, median survival T/C. The experiment in a line: NCI In Vivo Anticancer Drug Screen. Data for tumor model P388 Leukemia (intraperitoneal) in B6D2F1 (BDF1) mice. Particulars: endpoint: median survival time, higher = longer survival. The gist of the method:
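Steps: implant the tumour, treat one group with compound and another with vehicle, record survival, then divide treated by control.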

[1] abbreviates: dose: 50.0 mg/kg/injection, schedule: Q01DX009 (ip), vehicle: saline with Tween-80.
[2] abbreviates: dose: 100.0 mg/kg/injection, schedule: Q01DX009 (ip), vehicle: saline with Tween-80.
The mark [3] stands for this setting: dose: 200.0 mg/kg/injection, schedule: Q01DX009 (ip), vehicle: saline with Tween-80.
Setting [4] is: dose: 100.0 mg/kg/injection, schedule: Q04DX003 (ip), vehicle: Klucel (hydroxypropylcellulose) (HPC).
Setting [5] is: dose: 200.0 mg/kg/injection, schedule: Q04DX003 (ip), vehicle: Klucel (hydroxypropylcellulose) (HPC).
[6] abbreviates: dose: 400.0 mg/kg/injection, schedule: Q04DX003 (ip), vehicle: Klucel (hydroxypropylcellulose) (HPC).
[7] abbreviates: dose: 100.0 mg/kg/injection, schedule: Q01DX009 (ip), vehicle: Klucel (hydroxypropylcellulose) (HPC).
Where [8] appears, read: dose: 200.0 mg/kg/injection, schedule: Q01DX009 (ip), vehicle: Klucel (hydroxypropylcellulose) (HPC).
The mark [9] stands for this setting: dose: 6.25 mg/kg/injection, schedule: Q01DX009 (ip), vehicle: saline with Tween-80.
[10] abbreviates: dose: 12.5 mg/kg/injection, schedule: Q01DX009 (ip), vehicle: saline with Tween-80.
The mark [11] stands for this setting: dose: 25.0 mg/kg/injection, schedule: Q01DX009 (ip), vehicle: saline with Tween-80.
The mark [12] stands for this setting: dose: 25.0 mg/kg/injection, schedule: Q01DX009 (ip), vehicle: saline.
Setting [13] is: dose: 50.0 mg/kg/injection, schedule: Q01DX009 (ip), vehicle: saline.
[14] abbreviates: dose: 6.25 mg/kg/injection, schedule: Q01DX009 (ip), vehicle: saline.
Setting [15] is: dose: 12.5 mg/kg/injection, schedule: Q01DX009 (ip), vehicle: saline.

Several values for one entry are separate records, joined by “and”; a condition that tells them apart may be missing. Equal entries are not always repeated. Inconclusive results and toxic doses are left out.

With `[NH-][n+]1c2c(nc3ccccc31)-c1cccc3cccc-2c13`, the T/C runs as follows: (dose: 12.5 mg/kg/injection, schedule: Q01DX001 (ip), vehicle: Klucel (hydroxypropylcellulose) (HPC)) 111 % of control; (dose: 25.0 mg/kg/injection, schedule: Q01DX001 (ip), vehicle: Klucel (hydroxypropylcellulose) (HPC)) 100 % of control; (dose: 50.0 mg/kg/injection, schedule: Q01DX001 (ip), vehicle: Klucel (hydroxypropylcellulose) (HPC)) 100 % of control.

For `O=[N+]([O-])c1ccc(SC2=NCCN2)c(Cl)c1`, the T/C was 94 % of control under setting [1], 103 % of control under setting [2] and 112 % of control under setting [3].

On to `O=C(/C=C\c1ccc(O)c(O)c1)OC1C(O)CC(OC(=O)/C=C/c2ccc(O)c(O)c2)(C(=O)O)CC1O` (centres undefined), for which the T/C is, setting by setting: (dose: 100.0 mg/kg/injection, schedule: Q01DX001 (ip), vehicle: saline) 95 % of control; under setting [4], 100 % of control; (dose: 200.0 mg/kg/injection, schedule: Q01DX001 (ip), vehicle: saline) 95 % of control; under setting [5], 100 % of control; (dose: 400.0 mg/kg/injection, schedule: Q01DX001 (ip), vehicle: saline) 95 % of control; under setting [6], 95 % of control.

For the compound `COc1cccc2c1C(=O)c1c(O)c3c(c(O)c1C2=O)C[C@@](O)(/C(C)=N/NC(=O)c1ccc(Cl)c(Cl)c1)C[C@@H]3OC1CC(N)C(O)C(C)O1` (some centres undefined), the T/C was 202 % of control (dose: 0.5 mg/kg/injection, schedule: Q01DX009 (ip), vehicle: water); 234 % of control and 156 % of control (dose: 1.0 mg/kg/injection, schedule: Q01DX009 (ip), vehicle: water); 295 % of control and 186 % of control (dose: 2.0 mg/kg/injection, schedule: Q01DX009 (ip), vehicle: water); 295 % of control and 186 % of control (dose: 4.0 mg/kg/injection, schedule: Q01DX009 (ip), vehicle: water).

Regarding `CCCn1cnc2c(SCc3ccccc3Cl)nc(N)nc21`, the T/C was 90 % of control under setting [7]; 100 % of control (dose: 100.0 mg/kg/injection, schedule: Q04DX003 (ip), vehicle: other); 95 % of control under setting [8]; 95 % of control (dose: 200.0 mg/kg/injection, schedule: Q04DX003 (ip), vehicle: other); 104 % of control (dose: 400.0 mg/kg/injection, schedule: Q04DX003 (ip), vehicle: other).

In the case of `CCOC(=O)C1=C(Nc2ccccc2)CSC1`, the T/C runs as follows: (dose: 25.0 mg/kg/injection, schedule: Q01DX009 (ip), vehicle: water) 94 % of control; (dose: 50.0 mg/kg/injection, schedule: Q01DX009 (ip), vehicle: water) 97 % of control; (dose: 100.0 mg/kg/injection, schedule: Q01DX009 (ip), vehicle: water) 102 % of control; (dose: 200.0 mg/kg/injection, schedule: Q01DX009 (ip), vehicle: water) 108 % of control; (dose: 400.0 mg/kg/injection, schedule: Q01DX009 (ip), vehicle: water) 91 % of control.

As to `CN(C)C(=O)c1cccc(NCc2ccc3nc(N)nc(N)c3c2)c1`, the T/C was 108 % of control (dose: 3.12 mg/kg/injection, schedule: Q01DX009 (ip), vehicle: saline with Tween-80); 99 % of control under setting [9]; 106 % of control under setting [10]; 99 % of control under setting [11]; 95 % of control and 108 % of control under setting [1]; 100 % of control (dose: 50.0 mg/kg/injection, schedule: Q04DX003 (ip), vehicle: saline with Tween-80). The T/C under setting [2] is 91 % of control; the T/C (dose: 100.0 mg/kg/injection, schedule: Q04DX003 (ip), vehicle: saline with Tween-80) was 100 % of control; the T/C under setting [3] was 101 % of control; the T/C (dose: 200.0 mg/kg/injection, schedule: Q04DX003 (ip), vehicle: saline with Tween-80) is 104 % of control; the T/C (dose: 400.0 mg/kg/injection, schedule: Q01DX009 (ip), vehicle: saline with Tween-80) is 94 % of control; the T/C (dose: 400.0 mg/kg/injection, schedule: Q04DX003 (ip), vehicle: saline with Tween-80) was 102 % of control.

On to `Cc1cc(NC(=O)NCc2ccc(N)cc2)ccc1S(=O)(=O)F`, for which the T/C under setting [12] was 97 % of control; the T/C under setting [13] is 109 % of control; the T/C (dose: 50.0 mg/kg/injection, schedule: Q04DX003 (ip), vehicle: saline) is 102 % of control; the T/C (dose: 75.0 mg/kg/injection, schedule: Q01DX009 (ip), vehicle: saline) is 115 % of control; the T/C (dose: 100.0 mg/kg/injection, schedule: Q01DX009 (ip), vehicle: saline) is 90 % of control and 124 % of control; the T/C (dose: 100.0 mg/kg/injection, schedule: Q04DX003 (ip), vehicle: saline) was 102 % of control. Further, the T/C is 92 % of control (dose: 150.0 mg/kg/injection, schedule: Q01DX009 (ip), vehicle: saline); 106 % of control (dose: 200.0 mg/kg/injection, schedule: Q01DX009 (ip), vehicle: saline); 100 % of control (dose: 200.0 mg/kg/injection, schedule: Q04DX003 (ip), vehicle: saline); 99 % of control (dose: 400.0 mg/kg/injection, schedule: Q01DX009 (ip), vehicle: saline); 97 % of control (dose: 400.0 mg/kg/injection, schedule: Q04DX003 (ip), vehicle: saline).

Turning to `CCCCCC(CN(C)C)C(O)/C=C/c1ccccc1Cl` (centres undefined), the T/C was 110 % of control (dose: 3.12 mg/kg/injection, schedule: Q01DX009 (ip), vehicle: saline); 100 % of control under setting [14]; 105 % of control under setting [15]; 107 % of control under setting [12]; 117 % of control under setting [13].

As to `COC(=O)[C@@H]1[C@H](O)[C@H](C)[C@H](O)[C@H](C)/C=C\C=C(C)C(=O)Nc2c(C)c(OC(C)=O)c3c(c2O)C(=O)C(C)=C2OCOC(=C23)C(C)=C[C@@](C)(O)[C@H](O)[C@@H](C)[C@H]1OC(C)=O`, the T/C runs as follows: (dose: 50.0 mg/kg/injection, schedule: Q01DX009 (ip), vehicle: saline + alcohol) 95 % of control; under setting [7], 106 % of control; (dose: 100.0 mg/kg/injection, schedule: Q01DX009 (ip), vehicle: saline + alcohol) 99 % of control; under setting [8], 116 % of control and 123 % of control; (dose: 200.0 mg/kg/injection, schedule: Q01DX009 (ip), vehicle: saline + alcohol) 95 % of control; (dose: 400.0 mg/kg/injection, schedule: Q01DX009 (ip), vehicle: Klucel (hydroxypropylcellulose) (HPC)) 115 % of control. For the same compound, where the note is “dose: 400.0 mg/kg/injection, schedule: Q01DX009 (ip), vehicle: saline + alcohol”, the T/C is 100 % of control.

On to `NC(CO)C(=O)O.[Cl-].[Cl-].[Cl-].[Cl-].[Pt+2]` (centres undefined), for which the T/C under setting [13] is 116 % of control.

`CC(C)(C)OP(=O)(OC(C)(C)C)c1ccccc1`: the T/C under setting [1] is 118 % of control and the T/C under setting [2] was 98 % of control.

Turning to `c1ccc2c3c(ccc2c1)OCCOCCOc1ccc2ccccc2c1-3`, the T/C under setting [1] was 86 % of control, the T/C under setting [2] is 88 % of control and the T/C under setting [3] is 92 % of control.

In the case of `O=C(/C=C/c1ccc2c(c1)OCO2)c1ccccc1`, the T/C by setting is: (dose: 50.0 mg/kg/injection, schedule: Q01DX009 (ip), vehicle: Klucel (hydroxypropylcellulose) (HPC)) 114 % of control and 105 % of control; under setting [7], 112 % of control and 100 % of control; under setting [4], 104 % of control; under setting [8], 112 % of control; under setting [5], 100 % of control; under setting [6], 95 % of control.

In the case of `Nc1ncnc2oc(-c3ccccc3)c(-c3ccccc3)c12`, the T/C was 100 % of control under setting [9], 100 % of control under setting [10], 97 % of control under setting [11] and 92 % of control under setting [1].

On to `CC(/C=C/C(O)=C1/C(=O)CNC1=O)=C\[C@@H](C)[C@H]1O[C@@]2(C)O[C@H](C(=O)[C@@H]3O[C@@]32C)[C@@H]1C`, for which the T/C runs as follows: (dose: 3.13 mg/kg/injection, schedule: Q01DX009 (ip), vehicle: saline with Tween-80) 108 % of control; under setting [9], 105 % of control; under setting [10], 103 % of control; under setting [11], 100 % of control.

For the compound `O.[NH-]C(Cc1ccc(O)cc1)C(=O)O.[Ni]` (centres undefined), the T/C was 98 % of control under setting [14]; 107 % of control under setting [15]; 100 % of control (dose: 25.0 mg/kg/injection, schedule: Q04DX003 (ip), vehicle: saline).

Values taken from PubChem BioAssay AID328 (DTP/NCI, 2004).
